Legend:
[1] = target: 5-hydroxytryptamine receptor 1D (Homo sapiens) (UniProt P28221); experiment: 5-HT1D CEREP ligand profiling; conditions: Compound concentration 10.0 uM
[2] = target: Adenosine receptor A1 (Homo sapiens) (UniProt P30542); experiment: A1 (h) CEREP ligand profiling; conditions: Compound concentration 10.0 uM
[3] = target: Adrenergic receptor alpha-1 (Homo sapiens) (UniProt P35348+P25100+P35368); experiment: alpha 1 (non- selective) CEREP ligand profiling; assay type: protein assay; conditions: Compound concentration 10.0 uM
[4] = target: Voltage-gated L-type calcium channel (verapamil site) (Homo sapiens, UniProt O60840+Q01668+Q13698+Q13936); experiment: Ca2+ channel (L, verapamil site) CEREP ligand profiling; assay type: protein assay; conditions: compound concentration 10 uM
[5] = target: GABA-A receptor; anion channel (Homo sapiens) (UniProt P14867+P47870+P18507+P28472+P48169+Q99928+Q9UN88+P34903+O00591+O14764+Q8N1C3+P18505+P78334+P47869+P31644+Q16445); experiment: Cl- channel CEREP ligand profiling; assay type: protein-complex assay; conditions: Compound concentration 10.0 uM
[6] = target: D(3) dopamine receptor (Homo sapiens) (UniProt P35462); experiment: D3 (h) CEREP ligand profiling; conditions: Compound concentration 10.0 uM
[7] = target: Glucocorticoid receptor (Homo sapiens) (UniProt P04150); experiment: GR (h) CEREP ligand profiling; conditions: Compound concentration 10.0 uM
[8] = target: Histamine H2 receptor (Homo sapiens) (UniProt P25021); experiment: H2 (h) CEREP ligand profiling; conditions: Compound concentration 10.0 uM
[9] = target: T1, Muscarinic acetylcholine receptor M2 (Homo sapiens) (UniProt P08172); experiment: M2 (h) CEREP ligand profiling; conditions: Compound concentration 10.0 uM
T1 sequence (whole entry): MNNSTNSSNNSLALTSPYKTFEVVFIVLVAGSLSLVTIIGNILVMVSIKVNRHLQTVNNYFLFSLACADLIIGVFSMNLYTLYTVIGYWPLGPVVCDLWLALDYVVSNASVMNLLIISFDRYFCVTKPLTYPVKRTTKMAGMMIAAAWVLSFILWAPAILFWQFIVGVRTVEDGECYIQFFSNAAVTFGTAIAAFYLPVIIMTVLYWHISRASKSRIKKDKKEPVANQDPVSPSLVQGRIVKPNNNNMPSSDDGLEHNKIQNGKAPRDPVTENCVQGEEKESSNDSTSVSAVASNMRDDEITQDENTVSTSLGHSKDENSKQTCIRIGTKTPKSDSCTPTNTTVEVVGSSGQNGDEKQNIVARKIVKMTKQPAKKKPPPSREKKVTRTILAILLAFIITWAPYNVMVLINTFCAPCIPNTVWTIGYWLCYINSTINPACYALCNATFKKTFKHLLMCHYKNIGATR

[10] = target: Melanocortin receptor 4 (Homo sapiens) (UniProt P32245); experiment: MC4 (h) CEREP ligand profiling; conditions: Compound concentration 10.0 uM
[11] = target: Ribosyldihydronicotinamide dehydrogenase [quinone] (Homo sapiens) (UniProt P16083); experiment: (§1) ML2 (MT3) CEREP ligand profiling; conditions: Compound concentration 10.0 uM
[12] = target: Ribosyldihydronicotinamide dehydrogenase [quinone] (Homo sapiens, UniProt P16083); experiment: as §1
[13] = target: Motilin receptor (Homo sapiens) (UniProt O43193); experiment: Motilin (h) CEREP ligand profiling; conditions: Compound concentration 10.0 uM
[14] = target: cGMP-specific 3',5'-cyclic phosphodiesterase (Homo sapiens) (UniProt O76074); experiment: PDE5 (h) CEREP ligand profiling; conditions: Compound concentration 10.0 uM
[15] = target: RAC-gamma serine/threonine-protein kinase (Homo sapiens) (UniProt Q9Y243); conditions: Compound concentration 1000.0 nM
[16] = target: Mitogen-activated protein kinase kinase kinase 6 (Homo sapiens) (UniProt O95382); conditions: Compound concentration 1000.0 nM
[17] = target: Cyclin-dependent kinase 2 (Homo sapiens) (UniProt P24941); conditions: Compound concentration 1000.0 nM
[18] = target: Eukaryotic translation initiation factor 2-alpha kinase 1 (Homo sapiens) (UniProt Q9BQI3); conditions: Compound concentration 1000.0 nM
[19] = target: Mitogen-activated protein kinase 15 (Homo sapiens) (UniProt Q8TD08); conditions: Compound concentration 1000.0 nM
[20] = tested on: Receptor-type tyrosine-protein kinase FLT3 (Homo sapiens), P36888 [UNDEFINED MUTATION]; conditions: Compound concentration 1000.0 nM
[21] = target: Rhodopsin kinase GRK7 (Homo sapiens) (UniProt Q8WTQ7); conditions: Compound concentration 1000.0 nM
[22] = target: Glycogen synthase kinase-3 alpha (Homo sapiens) (UniProt P49840); conditions: Compound concentration 1000.0 nM
[23] = target: Insulin receptor-related protein (Homo sapiens) (UniProt P14616); conditions: Compound concentration 1000.0 nM
[24] = tested on: Mast/stem cell growth factor receptor Kit (Homo sapiens), P10721 [D816H]; conditions: Compound concentration 1000.0 nM
[25] = target: LIM domain kinase 2 (Homo sapiens) (UniProt P53671); conditions: Compound concentration 1000.0 nM
[26] = tested on: Leucine-rich repeat serine/threonine-protein kinase 2 (Homo sapiens), Q5S007 [G2019S]; conditions: Compound concentration 1000.0 nM
[27] = target: Tyrosine-protein kinase Lyn (Homo sapiens) (UniProt P07948); conditions: Compound concentration 1000.0 nM
[28] = target: Mitogen-activated protein kinase kinase kinase 11 (Homo sapiens) (UniProt Q16584); conditions: Compound concentration 1000.0 nM
[29] = target: Mitogen-activated protein kinase 11 (Homo sapiens) (UniProt Q15759); conditions: Compound concentration 1000.0 nM
[30] = target: NUAK family SNF1-like kinase 2 (Homo sapiens) (UniProt Q9H093); conditions: Compound concentration 1000.0 nM
[31] = target: Serine/threonine-protein kinase 16 (Homo sapiens) (UniProt O75716); conditions: Compound concentration 1000.0 nM
[32] = target: TRAF2 and NCK-interacting protein kinase (Homo sapiens) (UniProt Q9UKE5); conditions: Compound concentration 1000.0 nM
[33] = target: 5-hydroxytryptamine receptor 5A (Homo sapiens) (UniProt P47898); conditions: Compound concentration 10.0 uM
[34] = target: Mu-type opioid receptor (Homo sapiens) (UniProt P35372); conditions: Compound concentration 10.0 uM
[35] = target: Melatonin receptor type 1A (Homo sapiens) (UniProt P48039); experiment: ML1 CEREP ligand profiling; conditions: Compound concentration 10.0 uM
[36] = target: Acetylcholine receptor, muscle-type, subunit alpha-1 (Homo sapiens) (UniProt P02708); experiment: N (muscle-type) (h) CEREP ligand profiling; conditions: Compound concentration 10.0 uM
D(1A) dopamine receptor = D(1A) dopamine receptor (Homo sapiens, UniProt P21728); experiment: GPCRScan assay: inhibition of D1; design: radioligand conc. used [nm] 0.6 – 1.3, parental cells HEKT
[37] = target: Prostaglandin E2 receptor EP2 subtype (Homo sapiens, UniProt P43116); experiment: Inhibition of binding to PTGER2

Chain of Ribosyldihydronicotinamide dehydrogenase [quinone] (P16083 whole entry): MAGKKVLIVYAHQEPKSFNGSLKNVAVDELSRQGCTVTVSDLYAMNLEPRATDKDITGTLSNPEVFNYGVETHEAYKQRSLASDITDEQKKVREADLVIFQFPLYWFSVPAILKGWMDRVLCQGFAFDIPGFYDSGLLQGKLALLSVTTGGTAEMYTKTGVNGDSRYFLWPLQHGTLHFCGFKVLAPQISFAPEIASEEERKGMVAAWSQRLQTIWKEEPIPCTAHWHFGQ
Chain of Leucine-rich repeat serine/threonine-protein kinase 2 (Homo sapiens), Q5S007 [G2019S] (Q5S007 whole entry G2019S): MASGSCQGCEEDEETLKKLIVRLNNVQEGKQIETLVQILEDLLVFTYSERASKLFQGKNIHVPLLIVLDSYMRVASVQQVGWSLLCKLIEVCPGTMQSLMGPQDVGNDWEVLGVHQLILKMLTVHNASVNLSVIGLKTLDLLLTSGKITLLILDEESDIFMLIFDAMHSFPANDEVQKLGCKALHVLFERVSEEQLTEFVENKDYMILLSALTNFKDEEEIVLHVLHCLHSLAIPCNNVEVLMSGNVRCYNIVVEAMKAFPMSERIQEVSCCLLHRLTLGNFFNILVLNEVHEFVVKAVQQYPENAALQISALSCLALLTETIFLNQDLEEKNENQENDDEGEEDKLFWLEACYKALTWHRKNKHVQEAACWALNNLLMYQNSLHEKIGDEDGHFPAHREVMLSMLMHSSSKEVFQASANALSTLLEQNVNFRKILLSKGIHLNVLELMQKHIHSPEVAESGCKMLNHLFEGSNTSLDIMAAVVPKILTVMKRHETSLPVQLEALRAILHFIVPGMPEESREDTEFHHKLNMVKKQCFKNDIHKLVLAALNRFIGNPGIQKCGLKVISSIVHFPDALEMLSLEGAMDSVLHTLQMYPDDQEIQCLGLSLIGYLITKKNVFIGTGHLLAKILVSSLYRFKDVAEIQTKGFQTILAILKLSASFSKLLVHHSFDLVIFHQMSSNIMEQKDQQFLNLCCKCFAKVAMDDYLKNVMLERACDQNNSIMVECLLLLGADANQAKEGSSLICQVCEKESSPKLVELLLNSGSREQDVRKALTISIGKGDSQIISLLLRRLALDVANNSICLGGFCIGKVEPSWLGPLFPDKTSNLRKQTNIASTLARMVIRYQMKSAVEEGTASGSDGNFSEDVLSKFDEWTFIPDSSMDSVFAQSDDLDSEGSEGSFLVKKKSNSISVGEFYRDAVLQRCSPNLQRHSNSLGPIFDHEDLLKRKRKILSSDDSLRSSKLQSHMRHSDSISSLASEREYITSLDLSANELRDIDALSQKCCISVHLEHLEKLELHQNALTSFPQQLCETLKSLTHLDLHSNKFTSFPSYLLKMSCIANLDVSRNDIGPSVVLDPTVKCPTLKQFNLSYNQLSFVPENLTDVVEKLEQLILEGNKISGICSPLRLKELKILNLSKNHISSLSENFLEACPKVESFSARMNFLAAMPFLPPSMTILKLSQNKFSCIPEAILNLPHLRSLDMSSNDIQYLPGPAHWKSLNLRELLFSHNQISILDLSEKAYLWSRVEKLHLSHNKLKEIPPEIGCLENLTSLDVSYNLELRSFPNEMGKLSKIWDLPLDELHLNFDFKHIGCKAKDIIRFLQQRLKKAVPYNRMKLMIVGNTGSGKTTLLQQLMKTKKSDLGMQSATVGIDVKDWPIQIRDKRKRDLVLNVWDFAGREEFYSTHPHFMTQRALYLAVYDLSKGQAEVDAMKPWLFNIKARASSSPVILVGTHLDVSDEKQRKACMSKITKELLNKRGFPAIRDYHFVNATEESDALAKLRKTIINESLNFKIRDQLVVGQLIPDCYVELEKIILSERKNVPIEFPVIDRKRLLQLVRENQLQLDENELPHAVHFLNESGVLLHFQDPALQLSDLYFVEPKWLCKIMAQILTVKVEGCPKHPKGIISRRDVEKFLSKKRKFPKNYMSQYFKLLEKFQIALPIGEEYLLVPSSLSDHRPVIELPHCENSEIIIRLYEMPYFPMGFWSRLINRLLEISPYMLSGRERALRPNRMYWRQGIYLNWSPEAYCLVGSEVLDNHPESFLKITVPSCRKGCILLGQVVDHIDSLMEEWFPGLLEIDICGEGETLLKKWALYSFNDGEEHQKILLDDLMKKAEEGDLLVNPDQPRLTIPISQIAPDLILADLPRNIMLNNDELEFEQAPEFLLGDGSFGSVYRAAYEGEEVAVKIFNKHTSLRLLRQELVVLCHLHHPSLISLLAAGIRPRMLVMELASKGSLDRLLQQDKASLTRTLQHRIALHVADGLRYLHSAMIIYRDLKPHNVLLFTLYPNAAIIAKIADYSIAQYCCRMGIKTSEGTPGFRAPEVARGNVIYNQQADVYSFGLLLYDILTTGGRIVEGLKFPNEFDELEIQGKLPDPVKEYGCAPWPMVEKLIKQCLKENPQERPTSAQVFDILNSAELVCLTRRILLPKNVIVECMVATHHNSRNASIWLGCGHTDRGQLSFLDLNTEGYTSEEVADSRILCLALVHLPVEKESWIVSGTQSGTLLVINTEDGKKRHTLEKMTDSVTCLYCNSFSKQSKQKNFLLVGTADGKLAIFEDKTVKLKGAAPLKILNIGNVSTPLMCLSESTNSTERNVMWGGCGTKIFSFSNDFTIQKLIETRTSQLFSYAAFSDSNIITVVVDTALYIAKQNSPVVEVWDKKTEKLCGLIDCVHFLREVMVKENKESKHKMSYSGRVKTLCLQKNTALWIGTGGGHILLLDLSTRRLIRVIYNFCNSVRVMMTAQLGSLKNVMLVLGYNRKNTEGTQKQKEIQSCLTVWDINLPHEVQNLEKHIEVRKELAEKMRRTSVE
Chain of NUAK family SNF1-like kinase 2 (Homo sapiens) (Q9H093 whole entry): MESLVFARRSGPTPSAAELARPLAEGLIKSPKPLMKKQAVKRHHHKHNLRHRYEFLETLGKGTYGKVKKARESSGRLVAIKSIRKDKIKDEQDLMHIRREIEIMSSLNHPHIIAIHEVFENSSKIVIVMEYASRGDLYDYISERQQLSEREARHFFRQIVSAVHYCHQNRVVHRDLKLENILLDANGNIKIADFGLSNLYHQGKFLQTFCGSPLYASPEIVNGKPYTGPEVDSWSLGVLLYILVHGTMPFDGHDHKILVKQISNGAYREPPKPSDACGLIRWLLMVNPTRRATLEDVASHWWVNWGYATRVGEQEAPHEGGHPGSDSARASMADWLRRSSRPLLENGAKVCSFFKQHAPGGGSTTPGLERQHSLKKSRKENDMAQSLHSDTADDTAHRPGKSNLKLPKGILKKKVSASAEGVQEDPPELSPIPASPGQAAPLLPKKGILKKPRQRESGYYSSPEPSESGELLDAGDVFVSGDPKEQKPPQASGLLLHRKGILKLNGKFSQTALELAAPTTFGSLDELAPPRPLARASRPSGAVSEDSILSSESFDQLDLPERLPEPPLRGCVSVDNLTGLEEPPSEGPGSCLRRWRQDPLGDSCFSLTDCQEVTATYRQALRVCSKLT
Chain of Mast/stem cell growth factor receptor Kit (Homo sapiens), P10721 [D816H] (P10721 whole entry D816H, the tested form may be a part): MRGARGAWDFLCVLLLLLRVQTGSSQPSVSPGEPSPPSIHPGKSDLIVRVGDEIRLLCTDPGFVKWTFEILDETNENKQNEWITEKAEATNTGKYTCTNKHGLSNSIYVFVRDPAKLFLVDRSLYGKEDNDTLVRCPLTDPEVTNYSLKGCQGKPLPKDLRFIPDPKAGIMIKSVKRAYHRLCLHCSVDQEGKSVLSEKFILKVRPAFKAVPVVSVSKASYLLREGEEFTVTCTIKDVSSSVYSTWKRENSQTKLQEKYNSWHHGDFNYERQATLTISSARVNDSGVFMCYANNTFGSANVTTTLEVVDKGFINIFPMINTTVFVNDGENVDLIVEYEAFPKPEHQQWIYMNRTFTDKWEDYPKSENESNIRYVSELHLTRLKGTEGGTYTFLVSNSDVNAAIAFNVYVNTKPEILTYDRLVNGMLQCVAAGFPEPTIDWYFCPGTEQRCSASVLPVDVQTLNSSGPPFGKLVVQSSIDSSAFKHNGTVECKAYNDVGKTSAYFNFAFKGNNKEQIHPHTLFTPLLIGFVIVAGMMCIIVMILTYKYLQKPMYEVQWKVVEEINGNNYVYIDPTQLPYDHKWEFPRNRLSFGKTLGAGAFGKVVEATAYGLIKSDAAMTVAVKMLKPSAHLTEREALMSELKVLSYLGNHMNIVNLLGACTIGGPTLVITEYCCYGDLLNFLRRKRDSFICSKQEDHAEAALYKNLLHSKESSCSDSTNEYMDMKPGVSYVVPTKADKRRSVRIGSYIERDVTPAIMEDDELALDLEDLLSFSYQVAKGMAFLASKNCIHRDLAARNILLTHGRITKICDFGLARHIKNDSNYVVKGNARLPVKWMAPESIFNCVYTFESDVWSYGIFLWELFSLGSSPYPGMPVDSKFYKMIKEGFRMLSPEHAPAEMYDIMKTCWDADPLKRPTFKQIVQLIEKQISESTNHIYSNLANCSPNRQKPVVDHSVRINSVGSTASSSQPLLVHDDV
Chain of Rhodopsin kinase GRK7 (Homo sapiens) (Q8WTQ7 whole entry): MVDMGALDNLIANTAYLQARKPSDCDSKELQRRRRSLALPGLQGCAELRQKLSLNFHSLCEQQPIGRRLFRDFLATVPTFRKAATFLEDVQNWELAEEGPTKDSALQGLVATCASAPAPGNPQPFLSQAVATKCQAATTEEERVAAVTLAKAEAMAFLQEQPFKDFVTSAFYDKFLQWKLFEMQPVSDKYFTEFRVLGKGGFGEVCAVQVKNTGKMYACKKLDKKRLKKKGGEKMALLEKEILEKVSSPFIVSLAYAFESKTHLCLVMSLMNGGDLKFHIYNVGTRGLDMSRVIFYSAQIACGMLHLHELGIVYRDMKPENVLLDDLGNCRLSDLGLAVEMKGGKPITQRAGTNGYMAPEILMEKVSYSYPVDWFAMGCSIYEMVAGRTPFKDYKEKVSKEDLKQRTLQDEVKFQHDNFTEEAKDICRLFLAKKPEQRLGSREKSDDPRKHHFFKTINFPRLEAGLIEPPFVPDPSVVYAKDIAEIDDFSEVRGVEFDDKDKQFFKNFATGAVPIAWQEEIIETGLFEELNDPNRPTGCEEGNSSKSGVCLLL
Chain of Ribosyldihydronicotinamide dehydrogenase [quinone] (Homo sapiens) (P16083 whole entry): as the sequence (P16083 whole entry) above

In the case of `COc1ccc2cc(OCC3(C(=O)O)CN(C(=O)c4ccc(F)cc4)C3)ccc2c1` [PF-04418948], the inhibition [1] is reported as -10%, the inhibition [2] is reported as -2% and the inhibition [3] is reported as 9%. For the same compound, the inhibition at 10 µM [4] was -5% (not active), the inhibition [5] was 19% and the inhibition [6] was 1%. It also gave an inhibition [7] of -1%, an inhibition [8] of 3% and an inhibition [9] of 1%. The inhibition [10] was 8%, the inhibition [11] was 93% and the IC50 [12] was 530 nM. It also gave a Ki [12] of 520 nM, an inhibition [13] of -5% and an inhibition [14] of 6%. The residual activity [15] was 88%, the residual activity [16] was 95% and the residual activity [17] was 91%. The residual activity [18] was 94%, the residual activity [19] was 74% and the residual activity [20] was 91%. It also gave a residual activity [21] of 93%, a residual activity [22] of 96% and a residual activity [23] of 67%. The residual activity [24] was 82%, the residual activity [25] was 90% and the residual activity [26] was 84%. It also gave a residual activity [27] of 85%, a residual activity [28] of 79% and a residual activity [29] of 78%. The residual activity [30] was 92%, the residual activity [31] was 88% and the residual activity [32] was 61%. The inhibition [33] was -8.97%, the inhibition [34] was 1.07% and the inhibition [35] was -3%. For the same compound, the inhibition [36] was -10%.
In the case of `O=C(c1ccc(F)cc1)N1CC(COc2ccc(Br)cc2)(C(=O)O)C1` [PF-04475866], the Ki (D(1A) dopamine receptor) is reported as 10000 nM and the IC50 [37] is reported as 1300 nM (not active).

Reference: ChEMBL document CHEMBL4507298 (2021)
